The conditions of data set [1]: reported in literature; cited from earlier work.
Another data set in a line: Solubility of paclitaxel. The data set is classed as physicochemical. Particulars: PBS with 0.1% Tween 80 (release medium), aqueous with cosolvent or surfactant or cyclodextrin, thermodynamic from solid; PBS with 0.1% Tween 80, room temperature, mean ± SD, n = 3.
A short description of data set [2]: In-vitro release of paclitaxel by dialysis method. Format: physicochemical. Particulars: 37° C., PBS with 0.1% Tween 80. On the procedure: PX release studies (n=4) were completed at 37° C. by the dialysis method using PBS with 0.1% Tween 80 as release medium. Before release studies, the solubility of PX in release medium was measured. Briefly, extra amounts of paclitaxel were added into 2 mL of release medium until saturation was attained. After centrifuge, the concentration of PX in the supernatant was determined by HPLC as described above. For release studies, one milliliter (1 mL) of PX G78 NPs was purified with a Microcon Y-100 and re-suspended into 1 mL D.I. water. The concentration of PX in re-suspended PX G78 NPs was measured by HPLC as described above. Eight hundred microliters of purified PX G78 NPs, PX BTM NPs and reconstituted lyo BTM NPs were placed into a regenerated cellulose dialysis membrane (MWCO 8000 Da) submerged in 40 mL PBS with 0.1% Tween 80, respectively, and then shaken in a water bath at a speed of 150 rpm at 37° C. Free PX also was used as a control. At predetermined times, 200 μL aliquots were taken from outside of the dialysis membrane, and replaced with 200 μL fresh media. PX was measured by HPLC as described above. Mass balance was confirmed by measuring PX concentration inside the dialysis membranes after 72 h. In addition, the particle sizes of PX NPs inside the dialysis membranes were measured when release studies were terminated (at 72 h).

Values after ≈ are worked out from the molar mass of the structure shown. Bounds are passed on as bounds.

Regarding `CC(=O)O[C@H]1C(=O)[C@@]2(C)[C@H]([C@H](OC(=O)c3ccccc3)[C@]3(O)C[C@H](OC(=O)[C@H](O)[C@@H](NC(=O)c4ccccc4)c4ccccc4)C(C)=C1C3(C)C)[C@]1(OC(C)=O)CO[C@@H]1C[C@@H]2O` [Paclitaxel], the aqueous solubility in data set [1] was 0.7 to 30 µg/mL. In the data set “Solubility of paclitaxel”, this molecule showed a solubility of 10.8 ± 0.3 µg/mL (≈ 12.6 µM). Besides, the “time to complete release” value in data set [2] is on record as no more than 4 h.
